Values after ≈ are worked out from the molar mass of the structure shown. Read-outs that look alike come from different tables or passages of the source.
Legend:
E. coli Topo IV = target: T1, E. coli Topo IV (Escherichia coli, UniProt P0AFI2+P20083); assay: Topo IV microplate assay; type: biochemical; settings: agent 10-75 μM, FIG. 5
T1 construct: purchased Inspiralis (Norwich, UK) TRIV01
Protocol: (§1) The effect of the antimicrobial agents on gyrase was assessed using E. coli gyrase microplate assay kit (# TRG01) and with S. aureus gyrase microplate assay kit (# SATRG01). The effect of topoisomerase IV using was assessed using E. coli Topo IV microplate assay kit (# TRIV01) and with the S. aureus Topo IV microplate assay kit (# SATRIV01). All of these assay kits were obtained from Inspiralis (Norwich, UK). These assay kits are supplied with the relevant enzyme, substrate and buffers.
(§2) 1. Rehydrate wells with 3×200 μl Wash buffer (diluted from 20× stock with ultra-pure water).
(§3) 2. Immobilise 100 μl of 500 nM TF01 oligo in each well (5 μl of 10 μM TF01 oligo in 95 μl wash buffer).
(§4) 3. Incubate 5 minutes at room temperature.
(§5) 4. Wash off excess oligo with 3×200 μl Wash buffer.
(§6) 5. Incubate 2U (0.4 μl stock) of gyrase with 0.75 μg of relaxed pN01 in a reaction volume of 30 μl at 37° C. for 30 minutes in assay buffer—This is the part agent is added therefore the reaction volume is adjusted to account for this.
(§7) 6. Add 100 μl TF buffer (diluted from 20× stock) to well and incubate for a further 30 minutes at room temperature to allow triplex formation.
(§8) 7. Remove liquid from well and wash with 3×200 μl TF buffer to wash away unbound plasmid.
(§9) 8. Stain with DNA detection dye (diluted to ix with T10 buffer). Add 200 μl per well and incubate for 10-20 minutes at room temperature.
(§10) 9. Mix well and read in fluorescence plate reader Excitation wavelength: 495 nm; Emission wavelength: 537 nm. Use 485/520 filters in plate reader in 231.
(§11) 10. If required 10 μl of sample can be used to run on 1% agarose gel.
(§12) As the reaction volume is 30 μl make concentrations at 30× greater than required so 1 μl of the appropriate concentration can be added to the reaction. For each agent concentrations from a range of 10-75 μM.
(§13) The procedure for assessing effect of the agents on topoisomerase IV was the same as for the gyrase apart from the following changes; 1.5 U of topoisomerase IV was used in place of gyrase and supercoiled pN01 instead of relaxed pN01 was used in step 5. Results obtained were normalised using the following equation: […]
(§14) Xmin—minima among all data points
(§15) Xmax—maxima among all data points
(§16) Xi0-1—data point normalised between 0-1

S. aureus Topo IV = target: T2, S. aureus Topo IV (Staphylococcus aureus, UniProt P0C1S7+P0C1U9); assay: Topo IV microplate assay; type: biochemical; settings: agent 10-75 μM, FIG. 5
T2 construct: purchased Inspiralis (Norwich, UK) SATRIV01
T2 sequence (P0C1U9 whole entry): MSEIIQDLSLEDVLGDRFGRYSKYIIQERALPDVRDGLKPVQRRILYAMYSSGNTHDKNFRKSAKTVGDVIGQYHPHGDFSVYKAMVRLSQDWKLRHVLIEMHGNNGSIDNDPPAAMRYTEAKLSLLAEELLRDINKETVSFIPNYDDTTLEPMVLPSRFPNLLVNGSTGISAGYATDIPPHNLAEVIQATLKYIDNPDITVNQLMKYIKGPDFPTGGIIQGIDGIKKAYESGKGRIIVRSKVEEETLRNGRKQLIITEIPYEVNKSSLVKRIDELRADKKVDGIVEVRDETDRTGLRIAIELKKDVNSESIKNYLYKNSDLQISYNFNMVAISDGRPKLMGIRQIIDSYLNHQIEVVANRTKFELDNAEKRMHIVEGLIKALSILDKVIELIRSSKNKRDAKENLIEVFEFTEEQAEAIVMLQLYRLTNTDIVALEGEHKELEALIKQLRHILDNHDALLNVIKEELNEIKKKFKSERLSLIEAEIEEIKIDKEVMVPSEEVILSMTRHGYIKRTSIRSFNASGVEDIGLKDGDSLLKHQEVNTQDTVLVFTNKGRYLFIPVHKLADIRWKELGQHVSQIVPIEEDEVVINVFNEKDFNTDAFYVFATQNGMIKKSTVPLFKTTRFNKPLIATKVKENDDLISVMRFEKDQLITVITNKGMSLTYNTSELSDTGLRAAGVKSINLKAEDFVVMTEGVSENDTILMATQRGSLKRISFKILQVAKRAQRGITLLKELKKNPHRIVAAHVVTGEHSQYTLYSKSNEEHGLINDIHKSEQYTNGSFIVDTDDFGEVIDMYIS
T2 sequence (P0C1S7 whole entry): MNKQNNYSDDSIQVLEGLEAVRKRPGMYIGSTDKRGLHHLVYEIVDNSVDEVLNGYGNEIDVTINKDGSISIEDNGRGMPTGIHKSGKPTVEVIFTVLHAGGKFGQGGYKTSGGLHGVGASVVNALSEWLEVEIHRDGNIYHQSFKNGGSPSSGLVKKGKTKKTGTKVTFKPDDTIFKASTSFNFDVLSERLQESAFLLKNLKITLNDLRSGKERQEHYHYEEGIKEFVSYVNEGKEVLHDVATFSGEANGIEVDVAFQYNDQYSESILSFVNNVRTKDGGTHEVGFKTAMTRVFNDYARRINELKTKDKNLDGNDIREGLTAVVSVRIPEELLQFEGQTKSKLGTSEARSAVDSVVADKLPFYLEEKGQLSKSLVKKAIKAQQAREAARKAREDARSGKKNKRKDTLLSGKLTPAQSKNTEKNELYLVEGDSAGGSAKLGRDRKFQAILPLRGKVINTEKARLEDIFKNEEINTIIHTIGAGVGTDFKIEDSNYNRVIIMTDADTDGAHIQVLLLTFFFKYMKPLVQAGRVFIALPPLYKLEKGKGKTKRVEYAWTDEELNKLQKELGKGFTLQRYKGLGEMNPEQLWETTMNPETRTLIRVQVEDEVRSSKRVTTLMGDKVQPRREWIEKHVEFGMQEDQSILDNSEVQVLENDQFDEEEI
Protocol: as §1, §2, §3, §4, §5, §6, §7, §8, §9, §10, §11, §12, §13, §14, §15, §16

Psueudomonas GH12 = assay: General MIC protocol, Gram negative; type: cell-based; settings: Pseudomonas
Protocol: General Minimum Inhibitory Concentration (MIC) Protocol
(§17) 1. Grow up cultures of bacterial strains to be tested overnight.
(§18) 2. Dilute down overnight cultures to concentration of 1×10^6 bacteria/ml (OD0.01) in Tryptic soy broth (TSB).
(§19) 3. Add 100 μl of TSB media to column 2-column 12 in 96 well plate (keeping column 1 clear).
4. Make up compound to a concentration of 64 μg/ml in water (or alternatively to twice the chosen maximum concentration to be tested).
(§20) 5. Add 100 μl of antibiotic solution to the 1st and 2nd columns.
6. Using a multichannel pipette take 100 μl from the 2nd column wells and pipette into 3rd column wells and repeat down the 96 well plate (remembering to include controls i.e. uninfected media and media with no antibiotic).
7. To each well (except uninfected control row H) add 100 μl of bacterially infected media at a concentration of 1×10^6/ml.
8. This dilutes down the concentration of the antibiotic by half (top dose is therefore 32 μg/ml in column 1) and also gives you a starting bacterial concentration of 5×10^5/ml.
9. Wrap plate with parafilm to prevent evaporation.
10. Leave at desired temperature (37° C. unless specified elsewhere) for 20 hours.
11. Next day check plates for growth and measure optical density (i.e. absorbance) at a wavelength of 600 nm (OD600).
An example of such a plate is shown in FIG. 1 where column A represents wells that receive the top dose 100 μl; column B represents wells that receive the top dose 100 μl+100 μl TSB; and column C represents wells that receive 100 μl TSB. Row H which is marked by a box labelled D represents a blank where the cells receive no bacteria.
The activity of the compound designated PP-A148 was tested against an extended panel of Klebsiella and Pseudomonas Gram-negative bacterial strains that have proven drug resistant difficult to treat. […] The minimum inhibitory concentration (MIC) was measured using the general MIC protocol given above.

NCTC 13368 = assay: Effect of efflux pump inhibitors (EPIs) on MIC; type: cell-based, K. pneumoniae; settings: for MIC: Klebsiella pneumoniae; for +PABN MIC: PABN at 25 μg/ml
Protocol: as §17, §18, §19
(§21) 4. Make up compound to a concentration of 64 μg/ml in water.
as §20
(§22) 6. Using a multichannel pipette take 100 μl from the 2nd column wells and pipette into 3rd column wells and repeat down the 96 well plate (remember to include controls i.e. uninfected media and media with no antibiotic).
(§23) 7. To each well (except uninfected control row H) add 50 μl/well of EPI at 4× final concentration in TSB.
(§24) 9. In wells used to test the effect of the EPI carbonyl cyanide 3-chlorophenylhydrazone (CCCP) the CCCP is added at 10 μg/ml final concentration.
(§25) 10. In wells used to test the effect of the EPI phenylalanine-arginine β-naphthylamide (PABN) the PABN is added at 25 μg/ml final concentration.
(§26) 11. In wells used to test the effect of the PABN+Mg, the PABN is added at 25 μg/ml final concentration, with 1 mM MgSO4 in TSB.
(§27) 12. Wrap plate with parafilm to prevent evaporation.
(§28) 13. Leave at desired temperature (37° C. unless specified elsewhere) for 20 hours.
(§29) 14. Next day check plates for growth and measure optical density (i.e. absorbance) at a wavelength of 600 nm (OD600).
(§30) Compound KMR-14-33 was tested against a range of bacterial species using the above protocol. Compound PP-A148 was also tested against a more limited range of bacterial species using the above protocol. For KMR-14-33 measurements were carried out for the compound alone, for the compound plus CCCP, for the compound plus PABN and for the compound plus PABN and plus Mg. For PP-A148 measurements were carried out for the compound alone and for the compound plus PABN.

M6 = assay: Effect of efflux pump inhibitors (EPIs) on MIC; type: cell-based, K. pneumoniae; settings: for MIC: Klebsiella pneumoniae; for +PABN MIC: PABN at 25 μg/ml
Protocol: as §17, §18, §19, §21, §20, §22, §23, §24, §25, §26, §27, §28, §29, §30

[1] = NCTC13368, read-out: Control with no EPI MIC
[2] = read-out: Control with no EPI MIC

T1 sequence (P20083 whole entry): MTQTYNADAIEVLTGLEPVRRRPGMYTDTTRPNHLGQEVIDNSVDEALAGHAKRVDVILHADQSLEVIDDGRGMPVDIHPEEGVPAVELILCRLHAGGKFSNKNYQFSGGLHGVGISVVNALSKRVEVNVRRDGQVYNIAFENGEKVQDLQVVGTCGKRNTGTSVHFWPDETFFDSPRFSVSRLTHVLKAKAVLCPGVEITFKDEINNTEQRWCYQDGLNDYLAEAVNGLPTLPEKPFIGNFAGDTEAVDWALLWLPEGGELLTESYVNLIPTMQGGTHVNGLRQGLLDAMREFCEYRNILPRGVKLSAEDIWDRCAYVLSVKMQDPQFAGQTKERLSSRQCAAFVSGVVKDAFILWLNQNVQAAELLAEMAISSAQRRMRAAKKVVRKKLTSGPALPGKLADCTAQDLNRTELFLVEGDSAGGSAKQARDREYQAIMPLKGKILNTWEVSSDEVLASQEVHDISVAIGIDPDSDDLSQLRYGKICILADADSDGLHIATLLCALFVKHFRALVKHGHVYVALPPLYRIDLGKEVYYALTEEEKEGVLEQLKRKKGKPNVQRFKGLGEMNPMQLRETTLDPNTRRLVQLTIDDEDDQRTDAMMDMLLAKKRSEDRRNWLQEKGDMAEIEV
T1 sequence (P0AFI2 whole entry): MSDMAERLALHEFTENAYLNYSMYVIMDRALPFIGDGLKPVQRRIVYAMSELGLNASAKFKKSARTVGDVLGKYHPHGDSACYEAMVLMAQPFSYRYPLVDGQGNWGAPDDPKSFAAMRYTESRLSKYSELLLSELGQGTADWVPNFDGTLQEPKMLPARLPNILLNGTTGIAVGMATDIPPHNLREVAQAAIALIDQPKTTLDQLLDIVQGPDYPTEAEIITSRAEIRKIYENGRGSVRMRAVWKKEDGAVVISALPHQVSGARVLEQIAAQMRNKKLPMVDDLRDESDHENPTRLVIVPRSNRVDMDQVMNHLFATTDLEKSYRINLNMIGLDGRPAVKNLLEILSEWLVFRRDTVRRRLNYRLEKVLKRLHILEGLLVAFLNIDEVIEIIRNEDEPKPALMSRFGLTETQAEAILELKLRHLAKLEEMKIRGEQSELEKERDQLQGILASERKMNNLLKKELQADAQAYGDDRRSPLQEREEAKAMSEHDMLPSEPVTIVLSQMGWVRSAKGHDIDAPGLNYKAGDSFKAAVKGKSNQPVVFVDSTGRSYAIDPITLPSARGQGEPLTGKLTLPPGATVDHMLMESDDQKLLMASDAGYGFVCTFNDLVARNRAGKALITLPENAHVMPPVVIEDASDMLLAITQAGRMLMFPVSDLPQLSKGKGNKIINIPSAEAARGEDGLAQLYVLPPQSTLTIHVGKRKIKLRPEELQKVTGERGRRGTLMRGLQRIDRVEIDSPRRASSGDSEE

SMILES | effect on topoisomerase IV (E. coli Topo IV) | effect on topoisomerase IV (S. aureus Topo IV) | MIC (Psueudomonas GH12) | MIC (NCTC 13368; NCTC13368, read-out: +CCCP MIC) | MIC (NCTC 13368; [1]) | +PABN MIC (NCTC 13368; NCTC 13368) | +PABN + Mg MIC (NCTC 13368; NCTC 13368, PABN at 25 μg/ml with 1 mM MgSO4) | MIC (M6; read-out: +CCCP MIC) | MIC (M6; [2]) | +PABN MIC (M6; M6) | +PABN + Mg MIC (M6; M6, PABN at 25 μg/ml with 1 mM MgSO4)
O=C(O)c1cn(C2CC2)c2cc(N3CCNCC3)c(F)cc2c1=O [CIP, ciprofloxacin, reference compound] | inhibits | inhibits | 16 µg/mL (≈ 48.3 µM) |  |  |  |  |  |  |  | 
COc1cc2c(cc1OCCCC(=O)Nc1cc(C(=O)Nc3ccc4sc(C(=O)N(C)C)cc4c3)n(C)c1)N=C[C@@H]1CCCN1C2=O [KMR-14-33, (S)—N-(2-(dimethylcarbamoyl)benzo[b]thiophen-5-yl)-4-(4-((7-methoxy-5-oxo-2,3,5,11a-tetrahydro-1H-benzo[e]pyrrolo[1,2-a][1,4]-diazepin-8-yl)oxy)butanamido)-1-methyl-1H-pyrrole-2-carboxamide] |  |  |  | 2 µg/mL (≈ 3.05 µM) | 2 µg/mL (≈ 3.05 µM) | 1 µg/mL | 0.5 µg/mL | 0.125 µg/mL (≈ 0.19 µM) | 1 µg/mL (≈ 1.52 µM) | 0.125 µg/mL | 0.25 µg/mL
COc1cc2c(cc1OCCCC(=O)Nc1cc(C(=O)Nc3ccc4oc(C(=O)N5CCSCC5)cc4c3)n(C)c1)N=C[C@@H]1CCCN1C2=O [PP-A148, (S)-4-(4-((7-methoxy-5-oxo-2,3,5,11a-tetrahydro-1H-benzo-[e]pyrrolo[1,2-a][1,4]diazepin-8-yl)oxy)butanamido)-1-methyl-N-(2-(thiomorpholine-4-carbonyl)benzofuran-5-yl)-1H-pyrrole-2-carboxamide] | does not inhibit | does not inhibit | > 128 µg/mL |  | 16 to 32 µg/mL (≈ 22.9 to 45.8 µM) | 2 to 8 µg/mL |  |  | 0.25 to 0.5 µg/mL (≈ 0.358 to 0.716 µM) | 0.125 µg/mL | 
